From patent US20230142981A1, “METHOD FOR IDENTIFING A MARKER FOR A BIOLOGICAL INTERACTION” (ARPEGGIO BIOSCIENCES, INC., priority 2020, published 2023)

Legend:
[1] = tested on: HMOX1; assay: RT-qPCR assay of HMOX1 expression in HT-1080 cells; type: cell-based; details: for relative expression of HMOX1 in the absence of ferrostatin-1: HT-1080, 1 μM, four hours; for effect of ferrostatin-1 on induction of HMOX1: HT-1080, sodium arsenite 80 μM, hemin 5 μM, RSL3 1 μM, with or without 1 μM ferrostatin-1, four hours, normalized to DMSO control
Description: (§1) To confirm HMOX1 induction by the GPX4 inhibitors, an RT-qPCR assay was performed using three ferroptosis sensitive cancer cell lines: the fibrosarcoma cell line HT-1080, a Ewing's sarcoma cell line A673, and a renal clear cell carcinoma cell line 786-O. Briefly, cells were exposed to 1 μM ML162 or 1 μM RSL3 for 4 hours, RNA was isolated and an RT-qPCR assay was performed.
To further validate induction of HMOX1 mRNA expression by GPX4 inhibition, RT-qPCR was performed using varying doses of the RSL3 inhibitor. Briefly, HT-1080 cells were exposed to 5 μM RSL3, 1 μM RSL3, and 0.2 μM RSL3 for four hours, RNA was isolated and an RT-qPCR assay was performed to quantify HMOX1 expression. DMSO was used as a control exposure.
(§2) Briefly, HT-1080, A673, and 786-O cells were exposed to 1 μM ML162 or 1 μM RLS3 with or without 1 μM ferrostatin-1 for four hours, RNA was isolated and an RT-qPCR assay was performed to quantify HMOX1 expression. DMSO was used as a control exposure.
Sodium arsenite and hemin are known to be inducers of general oxidative stress in cells. Briefly, HT-1080 cells were exposed to sodium arsenite (80 μM), hemin (5 μM), ML162 (1 μM), or RSL3 (1 μM) with or without 1 μM ferrostatin-1 for four hours, RNA was isolated and an RT-qPCR assay was performed to quantify HMOX1 expression. DMSO was used as a control exposure.

[2] = tested on: lung fibroblast cell line IMR90; assay: nascent RNA sequencing of IMR90 cells exposed to GPX4 inhibitors; type: cell-based; details: IMR90, 1 μM, 1 hour, Pval 10^−3
Description: (§3) To assess the transcriptional response of a cell to inhibition of GPX4, we exposed two cell lines to two different chemical inhibitors of GPX4 (ML162 and RSL3; available from Sigma Aldrich and Apex Bio respectively) and examined the transcriptional responses using a nascent RNA sequencing protocol. Briefly, a fibrosarcoma cell line HT-1080 and a lung fibroblast cell line IMR90 were exposed to 1 μM ML162 or 1 μM RSL3 for 1 hour and the nascent RNA sequencing protocol was performed.

[3] = tested on: fibrosarcoma cell line HT-1080; assay: nascent RNA sequencing of HT-1080 cells exposed to GPX4 inhibitors; type: cell-based; details: 1 hour; for number of genes with significant changes in gene transcription: 1 μM, HT-1080 compared with IMR90; for HMOX1 differential expression (nascent RNA sequencing): HT-1080, 1 μM, Pval<10^−2
Description: as §3

[4] = tested on: HMOX1; assay: RT-qPCR assay of HMOX1 expression in A673 cells; type: cell-based; details: A673, 1 μM; for relative expression of HMOX1 in the absence of ferrostatin-1: four hours, relative to ACTB
Description: as §1, §2

[5] = tested on: HMOX1; assay: RT-qPCR assay of HMOX1 expression in 786-O cells; type: cell-based; details: 1 μM; for relative expression of HMOX1 in the absence of ferrostatin-1: four hours, relative to ACTB
Description: as §1, §2

[6] = tested on: breast cancer cell line (MCF7); assay: steady state RNA-seq of MCF7 cells after estradiol treatment; type: cell-based; details: MCF7, 100 nM estradiol, 15 minutes, pval 10^−3
Description: (§4) To assess the sensitivity and dynamic range of the nascent RNA sequencing assay in gauging a cellular response to a stimulus, the performance of a steady state RNA-seq protocol was compared against a nascent RNA sequencing protocol using a breast cancer cell line (MCF7) model and estrogen treatment to elicit a well characterized, widespread transcriptional response driven by ERα and ERβ transcription factors. Briefly, cell cultures were treated with 100 nM estradiol for 15 minutes or left untreated (i.e., untreated controls) and a steady state RNA-seq protocol or the nascent RNA sequencing assay described herein above was performed.

[7] = tested on: breast cancer cell line (MCF7); assay: nascent RNA sequencing (SNAP-seq) of MCF7 cells after estradiol treatment; type: cell-based; details: MCF7, 100 nM estradiol, 15 minutes, significance threshold pval 10^−3
Description: as §4

[8] = tested on: 786-O; details: cells treated with small molecules that induce lipid peroxidation; cited from earlier work
[9] = tested on: A673; details: A673, cells treated with small molecules that induce lipid peroxidation; cited from earlier work
[10] = tested on: HT-1080; details: HT-1080, cells treated with small molecules that induce lipid peroxidation; cited from earlier work
[11] = 4 hours, normalized to DMSO control, n=2

Compound	relative expression of HMOX1 in the absence of ferrostatin-1 ([1]; relative to ACTB)	HMOX1 differential expression (nascent RNA sequencing) [2]	number of genes with significant changes in gene transcription [3]	HMOX1 differential expression (nascent RNA sequencing) [3]	relative expression of HMOX1 in the absence of ferrostatin-1 [4]	relative expression of HMOX1 in the absence of ferrostatin-1 [5]	effect of ferrostatin-1 on induction of HMOX1 [1]	also measured
COc1ccc(N(C(=O)CCl)C(C(=O)NCCc2ccccc2)c2cccs2)cc1Cl (stereo not drawn) [ML162]	HMOX1 expression was observed	strongly differentially expressed	greater in the HT-1080 cell line relative to the IMR90 cell line	strongly differentially expressed	HMOX1 expression was observed	HMOX1 expression was observed		fold induction for HMOX1 mRNA ([1]; 1 µM): induced; relative expression of HMOX1 in the presence of ferrostatin-1 ([1]; HT-1080, 1 μM with 1 μM ferrostatin-1, four hours, relative to ACTB): induced HMOX1 even in the presence of ferrostatin-1; fold induction for HMOX1 mRNA [4, 11]: induced; fold induction for HMOX1 mRNA [5, 11]: induced
COC(=O)c1ccc([C@@H]2c3[nH]c4ccccc4c3C[C@@H](C(=O)OC)N2C(=O)CCl)cc1 [RSL3]	HMOX1 expression was observed	strongly differentially expressed	greater in the HT-1080 cell line relative to the IMR90 cell line	strongly differentially expressed	HMOX1 expression was observed	HMOX1 expression was observed	dependent on lipid peroxidation	
C[C@]12CC[C@@H]3c4ccc(O)cc4CC[C@H]3[C@@H]1CC[C@@H]2O [estradiol]								number of differentially expressed genes (estradiol/untreated), steady-state RNA-seq [6]: 8; number of differentially expressed genes (estradiol/untreated), nascent RNA sequencing (SNAP-seq) [7]: 762
CCOC(=O)c1ccc(NC2CCCCC2)c(N)c1 [ferrostatin-1]								rescue of cellular viability (ferroptosis-protective effect) [8]: ferroptosis-protective effect has been observed; rescue of cellular viability (ferroptosis-protective effect) [9]: ferroptosis-protective effect has been observed; rescue of cellular viability (ferroptosis-protective effect) [10]: ferroptosis-protective effect has been observed
O=[As]O [sodium arsenite]							not affected by the presence of ferrostatin-1	
hemin							not affected by the presence of ferrostatin-1	
